The text below walks through data of patent publication US20100120690A1, “Polypeptides Having Antimicrobial Activity and Polynucleotides Encoding Same” (Novozymes Adenium Biotech A/S, priority 2005, published 2010).

This experiment relates to Staphylococcus carnosus ATCC51365. Description: Yeast screening assay: radial diffusion assay of yeast supernatants. The arrangement: key: An activity of 3 is better than Plectasin; An activity of 2 corresponds to the activity of Plectasin; 1 is worse than Plectasin. It is filed as cell-based. The settings on record: yeast supernatant, clearing zone in radial diffusion assay. As for the experimental part: A range of antimicrobial polypeptides, which are variants of SEQ ID NO: 1 (Plectasin), were tested for antimicrobial activity by expressing them in S. cerevisae and screening the supernatant of the yeast transformants for antimicrobial activity against Staphylococcus carnosus ATCC51365.
Radial Diffusion Assay was carried out as described in Methods in Molecular Biology, Vol. 78, Antibacterial peptide protocol, William M. Shafer, Human Press.
200-300 yeast transformant colonies were plated on 14 cm round plates containing 25 mL SC growth medium supplemented with 1.5% galactose, 0.5% glucose and 1.5% agarose. Plates were incubated for three hours at room temperature, overlaid with 25 mL of the same growth medium and allowed to grow for three days at 30° C. Then the plates were overlaid with 25 mL of LB growth medium containing 1.5% agarose and 10^5 cells of the indicator strain Staphylococcus carnosus and incubated at 30° C. overnight to allow growth of the bacterial cells. Next day, the plates were stained with 1.5 mM MTT to facilitate visualization of the clearing zones.
Yeast colonies creating clearing zones were transferred to microtiter plates containing 200 micro-L of SC growth medium supplemented with 2% glucose and ampicillin (100 mg/L). Such plates designated “master plates” were incubated for 2 days at 30° C. with shaking at 450 rpm to allow yeast growth.
10 micro-L SC growth medium from each well of the master plates were transferred to new microtiter plates containing 200 micro-L SC growth medium with 1.5% galactose and 0.5% glucose. These plates were called daughter plates and were incubated for 3 days at 30° C. under 450 rpm shaking to allow yeast growth and peptide synthesis.
Finally a Radial Diffusion Assay (RDA) was performed following the protocol described in Methods in Molecular Biology to analyse and quantify the antimicrobial activity of the yeast supernatants against S. carnosus.
Briefly, 30 mL of minimal underlay medium containing 1% agarose and 5×10^5 cfu/mL of S. carnosus was poured in an omnitray plate (Nunc, 242811). A Nunc TSP plate (#445497) was inserted immediately on the plate to allow a 96 well pattern formation. Once the media had solidified, the TSP plate was removed and 10 micro-L of yeast supernatant samples were applied on the holes. Plates were incubated 3 hours at 37° C. and overlaid with 15 mL of LB agar growth medium. Finally, plates were incubated overnight at 37° C. and coloured with 1.5 mM MTT to visualize the clearing zones.
Inspection and measurements of the clearing zones was performed on the plates. The corresponding yeast clones resulting in clearing zones of similar or increased size than the clones encoding for wild type plectasin were picked from the master plates and transferred to agar plates containing SC growth medium with 2% glucose and ampicillin (100 mg/L). Such plates were incubated for further 2 days at 30° C. to allow yeast growth. Subsequently, colony PCR was performed followed by sequence analysis to identify amino acid changes in the plectasin sequence.
An activity of 2 corresponds to the activity of Plectasin. An activity of 3 is better than Plectasin, and 1 is worse than Plectasin.
Take “GFGCNGPWDEDDMQCHNHCKSIKGYKGGYCAKGGFVCHCY [Mutation K38H]”: the “Activity (antimicrobial activity relative to the activity of plectasin)” value was determined as 2. Next, “GFGCNGPWYEDDMQCHNHCKSIKGYKGGYCAKGGFVCKCY [Mutation D9Y]”: 3; “GFGCNGPWDEDDMQCHNHCKSIKGYKGGYCARGKFVCKCY [K32R + G34K]”: 2. For the sequence “GFGCNGPWDEDDMHCHNHCKSIKGYKGGYCAKGGFVCKCY [Mutation Q14H]”, the “Activity (antimicrobial activity relative to the activity of plectasin)” value amounted to 3. On to “GFGCNGPWDEDDMQCHNHCKSIKTYKGGYCAKGGFVCKCY [Mutation G24T]”, for which the “Activity (antimicrobial activity relative to the activity of plectasin)” value worked out at 2. The same measure for “GFGCNGPWDEDDMQCHNHCKSIKNYKGGYCAKGGFVCKCY [Mutation G24N]”: 3. Next, “GFGCNGPWDEKDMQCHNHCKSIKGYKGGYCAKGGFVCKCY [Mutation D11K]”: 3. In the case of “GFGCNGPWDEDDMQCHNHCKSIKGYKGGYCAKRGFVCKCY [Mutation G33R]”, the “Activity (antimicrobial activity relative to the activity of plectasin)” value came out at 3. With “GFGCNGPWDGDDMQCHNHCKSIKGYKGGYCAKGGFVCKCY [Mutation E10G]”, the “Activity (antimicrobial activity relative to the activity of plectasin)” value is 3. Next, “GFGCNGPWDEDDMQCHNHCKSIKYYKGGYCAKGGFVCKCY [Mutation G24Y]”: 2; “GFGCNGPWIEDDMQCHNHCKSIKGYKGGYCAKGGFVCKCY [Mutation D9I]”: 2; “GFGCNGKWDEDDMQCHNHCKSIKGYKGGYCAKGGFVCKCY [Mutation P7K]”: 3. The same measure for “GFGCNGPWDEDDVQCHNHCKSIKGYKGGYCAKGGFVCKCY [Mutation M13V]”: 3. As to “GFGCNGPWTEDDMQCHNHCKSIKGYKGGYCAKGGFVCKCY [Mutation D9T]”, the “Activity (antimicrobial activity relative to the activity of plectasin)” value came out at 3. Next, “GFGCNGPWDCDDMQCHNHCKSIKGYKGGYCAKGGFVCKCY [Mutation E10C]”: 2. The same measure for “GFGCNGRWDEDDMQCHNHCKSIKGYKGGYCAKGGFVCKCY [Mutation P7R]”: 3; for “GFGCNGPWDEDDYQCHNHCKSIKGYKGGYCAKGGFVCKCY [Mutation M13Y]”: 2.

On to “GFGCNGPWDEDDMQCHNHCKSIKGYKGGYCIKGGFVCKCY [Mutation A31I]”, for which the “Activity (antimicrobial activity relative to the activity of plectasin)” value was found to be 2. With “GFGCNGPWDEDDMQCHNHCKSIKGYKGGMCAKGGFVCKCY [Mutation Y29M]”, the “Activity (antimicrobial activity relative to the activity of plectasin)” value is 2. The same measure for “GFGCNGPWDEDDLQCHNHCKSIKGYKGGYCAKGGFVCKCY [Mutation M13L]”: 2. Next, “GFGCNGPWDEDDFQCHNHCKSIKGYKGGYCAKGGFVCKCY [Mutation M13F]”: 2.

As to “GFGCNGPWPEDDMQCHNHCKSIKGYKGGYCAKGGFVCKCY [Mutation D9P]”, the “Activity (antimicrobial activity relative to the activity of plectasin)” value came to 3. The same measure for “GFGCNGPWDEDDMQCHNHCKSIKQYKGGYCAKGGFVCKCY [Mutation G24Q]”: 2; for “GFGCNGPWCEDDMQCHNHCKSIKGYKGGYCAKGGFVCKCY [Mutation D9C]”: 2; for “GFGCNGPWDEDDMQCHNHCKSIKGYKGGYCAKQGFVCKCY [Mutation G33Q]”: 3. Next, “GFGCNGPWDEDDMQCHNHCKSIKGYKGGYCAKGGFMCKCY [Mutation V36M]”: 3; “GFGCNGPWDEDDMCCHNHCKSIKGYKGGYCAKGGFVCKCY [Mutation Q14C]”: 2. Next, “GFGCNGPWDECDMQCHNHCKSIKGYKGGYCAKGGFVCKCY [Mutation D11C]”: 2. Turning to “GFGCNGPRDEDDMQCHNHCKSIKGYKGGYCAKGGFVCKCY [Mutation W8R]”, the “Activity (antimicrobial activity relative to the activity of plectasin)” value amounted to 3. Next, “GFGCNGPWDERDIQCHNHCKSIKGYKGGYCAKGGFVCKCY [D11R + M13I]”: 3. Consider “GFGCNGPWREDDMQCHNHCKSIKGYKGGYCAKGGFVCKCY [Mutation D9R]”, for which the “Activity (antimicrobial activity relative to the activity of plectasin)” value stood at 2. The same measure for “GFGCNGPWMEDDMQCHNHCKSIKGYKGGYCAKGGFVCKCY [Mutation D9M]”: 3; for “GFGCNGPWDEDDMQCHNHCKSIKIYKGGYCAKGGFVCKCY [Mutation G24I]”: 2; for “GFGCNGPWDELDMQCHNHCKSIKGYKGGYCAKGGFVCKCY [Mutation D11L]”: 3. Consider “GFGCNGPWDEDDMQCHNHCKSIKGYKGGYCAKKGFVCKCY [Mutation G33K]”, for which the “Activity (antimicrobial activity relative to the activity of plectasin)” value is 3. Take “GFGCNGPWDEDDMQCHNHCQSIKGYKGGYCAKGGFVCKCY [Mutation K20Q]”: the “Activity (antimicrobial activity relative to the activity of plectasin)” value turned out to be 2. Next, “GFGCNGPWDEDDMQCHNHCKSWKGYKGGYCAKGGFVCKCY [Mutation I22W]”: 2; “GFGCNGPWDEDDMQCHNHCKSIKGYKGGYCAKGWFVCKCY [Mutation G34W]”: 2; “GFGCNGPWDEDDMQCHNHCKSIKGQKGGYCAKGGFVCKCY [Mutation Y25Q]”: 2. Next, “GFGCNGPWNEDDMQCHNHCKSIKGYKGGYCAKGGFVCKCY [Mutation D9N]”: 3. The same measure for “GFGCNGPWDEDDMQCHNHCKSVKGYKGGYCAKGGFVCKCY [Mutation I22V]”: 3. Consider “GFGCNGPWDEDDMQCHNHCKSIKGYKGGYCAKGGLVCKCY [Mutation F35L]”, for which the “Activity (antimicrobial activity relative to the activity of plectasin)” value amounted to 3. Next, “GFGCNGPWDEDDMQCHNHCKSIKGYKGGYCAKGGHVCKCY [Mutation F35H]”: 2. Consider “GFGCNAPWDEDDMQCHNHCKSIKGYKGGYCAKGGFVCKCY [Mutation G6A]”, for which the “Activity (antimicrobial activity relative to the activity of plectasin)” value was 2.

In the case of “GFGCNGPWHEDDMQCHNHCKSIKGYKGGYCAKGGFVCKCY [Mutation D9H]”, the “Activity (antimicrobial activity relative to the activity of plectasin)” value is 3. For the sequence “GFGCNGPWDELDIQCHNHCKSIKGYKGGYCAKGGFVCKCY [D11L + M13I]”, the “Activity (antimicrobial activity relative to the activity of plectasin)” value is on record as 2. Next, “GLGCNGPWDEDDMQCHNHCKSIKGYKGGYCAKGGFVCKCY [Mutation F2L]”: 2; “GFGCNGPWDEDDMQCHNHCKSIKGHKGGYCAKGGFVCKCY [Mutation Y25H]”: 2. Next, “GFGCNGPWDGDDMRCHNHCKSIKGYKGGYCAKGGFVCKCY [E10G + Q14R]”: 3.
